In patent US8067424B2, “Selective inhibitors for cyclin-dependent kinases” (Emory University, priority 2007, dated 2011):

Legend:
CAK (CDK7) = CAK (CDK7) (Homo sapiens, UniProt P50613); experiment: 32P incorporation kinase assay, CAK
CDK9/cyclin T complex = target: T1, CDK9/cyclin T complex (Homo sapiens, UniProt P50750); experiment: CDK9/cyclin T kinase assay (as for CDK7); format: biochemical; settings: for remaining activity at 0.1 µM: 100 nM, mean of three (standard deviation), read-out: CDK9 % remaining kinase activity after incubation with 100 nM of compound
T1 construct: purchased Proqinase GmbH, Germany
T1 sequence (P50750 whole entry): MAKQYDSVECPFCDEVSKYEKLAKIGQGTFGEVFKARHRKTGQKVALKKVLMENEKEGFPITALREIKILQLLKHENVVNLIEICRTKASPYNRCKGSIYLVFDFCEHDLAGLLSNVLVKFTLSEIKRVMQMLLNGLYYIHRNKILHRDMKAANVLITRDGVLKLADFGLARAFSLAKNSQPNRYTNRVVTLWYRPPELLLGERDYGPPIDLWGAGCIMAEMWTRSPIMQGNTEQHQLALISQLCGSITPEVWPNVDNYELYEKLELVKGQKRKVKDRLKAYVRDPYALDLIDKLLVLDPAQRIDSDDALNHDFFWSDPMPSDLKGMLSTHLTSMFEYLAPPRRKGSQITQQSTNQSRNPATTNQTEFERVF
T1 sequence (O60563 whole entry partner): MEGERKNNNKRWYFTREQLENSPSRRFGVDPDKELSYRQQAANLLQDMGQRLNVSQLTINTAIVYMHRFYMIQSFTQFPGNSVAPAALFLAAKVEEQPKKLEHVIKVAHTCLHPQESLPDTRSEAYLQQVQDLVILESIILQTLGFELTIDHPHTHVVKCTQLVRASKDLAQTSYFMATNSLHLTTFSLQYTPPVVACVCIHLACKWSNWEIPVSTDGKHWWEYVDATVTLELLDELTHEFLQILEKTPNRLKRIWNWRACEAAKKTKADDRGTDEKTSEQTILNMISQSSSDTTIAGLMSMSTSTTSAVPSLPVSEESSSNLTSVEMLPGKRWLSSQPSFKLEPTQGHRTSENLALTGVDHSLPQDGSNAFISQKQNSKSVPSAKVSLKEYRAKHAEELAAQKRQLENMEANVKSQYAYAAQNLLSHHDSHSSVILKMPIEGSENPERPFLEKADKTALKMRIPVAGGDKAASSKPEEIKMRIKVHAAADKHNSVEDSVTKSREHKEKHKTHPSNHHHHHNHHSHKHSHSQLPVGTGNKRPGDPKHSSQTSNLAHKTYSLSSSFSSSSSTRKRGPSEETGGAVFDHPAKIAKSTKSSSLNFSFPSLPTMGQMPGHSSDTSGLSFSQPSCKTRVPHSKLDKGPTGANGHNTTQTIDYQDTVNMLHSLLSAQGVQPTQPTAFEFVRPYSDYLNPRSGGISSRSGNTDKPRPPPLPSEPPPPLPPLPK
Description: (§1) Prepared test compounds, prepared at concentrations of 1000, 100, 10, 1 and 0.1 μM. Diluted 1 in 40 in ddH2O and added 1 μl of test compound or DMSO (controls). • 3. Incubated at 30° C. for 30 mins in a water bath. • 4. Added 10 µl of ATP […] per reaction to get a final concentration of 2 μM ATP. • 5. Made up to 25 μl total volume with ddH2O • 6. Incubated for 20 min at 30° C. in a water bath • 7. Used the PKLight Kinase assay (Cambrex, UK), add to each reaction 10 μl of stop reaction and mix thoroughly. Incubated at room temp for 10 min. • 8. Added 20 μ1 Luciferase reaction mixture (Cambrex, UK) per reaction, and further incubated at room temp for 10 mins and determined luciferase activities according to manufacturer's methods. Kinase reactions were added to 96 well microplates and luciferase activities determined using a Packard TopCount NXT™ luminescent counter (TopCount 9904). The luminometer was programmed to take a read time of 0.1 integrated reading and emission of light was detectable at 560 nm. • 9. All kinase inhibition assays were carried out in triplicate. As the bioluminescent signal is inversely proportional to kinase activity, all values were deducted from the no enzyme control. These values were then plotted utilizing the enzyme control as a reference to 100% activity and compared to all other values.
Inhibition of CDK2 was assessed using 50 ng CDK2/cyclin A complex (Proqinase GmbH, Germany), as above for CDK7 Inhibition of CDK9 was assessed using 100 ng CDK9/cyclin T complex (Proqinase GmbH, Germany), as above for CDK7.

CDK2/cyclin A complex = target: T2, CDK2/cyclin A complex (Homo sapiens, UniProt P24941); experiment: CDK2/cyclin A kinase assay (as for CDK7); format: biochemical; settings: for remaining activity at 0.1 µM: 100 nM, mean of three (standard deviation), read-out: CDK2 % remaining kinase activity after incubation with 100 nM of compound; for IC50: Table 7, mean of three experiments, read-out: CDK2 kinase inhibition in vitro (IC50)
T2 construct: purchased Proqinase GmbH, Germany
How it was run: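 Run as the CDK7 protocol with 50 ng CDK2/cyclin A or 100 ng CDK9/cyclin T; compound 30 min at 30 °C, then 2 μM ATP final for 20 min at 30 °C. ATP depletion by luciferase luminescence (PKLight), triplicate, normalised to no-enzyme and enzyme controls.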

MCF-7 = experiment: Growth assay (SRB, 72 hours); format: cell-based; settings: MCF-7, 72 hours; for IC50 / CC50: Homo sapiens, MCF7; for IC50: read-out: Growth Inhibition MCF7 IC50; for CC50: read-out: Growth Inhibition MCF7 LC50
Description: Growth assay: The cell lines (MCF-7 and MDA-MB-231; purchased from ATCC, USA) were routinely passaged in Dulbecco's Modified Eagle's Medium (DMEM), supplemented with 10% fetal calf serum (FCS) and kept in a 37° C. incubator with 5% CO2. For the growth assay, 6000 cells were seeded into each well of 96-well plates in DMEM containing 10% FCS. Compounds prepared in DMSO were added to the medium at concentrations ranging from 0.4-100 μM. The cells were incubated for a further 72 hours, at which time they were fixed by the addition of 100 μl/well of ice-cold 40% TCA. The plates were left for 1 hour, washed in water and 100 μl of 0.4% (w/v) sulphorhodamine (SRB; Sigma-Aldrich, UK) prepared in 1% acetic acid was added. Plates were washed in 1% acetic acid to remove excess SRB reagent, air dried and bound dye was solubilized by the addition of 100 μl of 10 mM Tris base. The plates were read at 492 nm using a plate reader.

CDK4 [1] = target: T3, CDK4 (Homo sapiens, UniProt P11802); experiment: CDK4 in vitro kinase inhibition (protocol similar to Example 14); format: biochemical; settings: for remaining activity at 0.1 µM: 100 nM, mean of three (standard deviation), read-out: CDK4 % remaining kinase activity after incubation with 100 nM of compound; for IC50: Table 7, mean of three experiments
T3 sequence (P11802 whole entry): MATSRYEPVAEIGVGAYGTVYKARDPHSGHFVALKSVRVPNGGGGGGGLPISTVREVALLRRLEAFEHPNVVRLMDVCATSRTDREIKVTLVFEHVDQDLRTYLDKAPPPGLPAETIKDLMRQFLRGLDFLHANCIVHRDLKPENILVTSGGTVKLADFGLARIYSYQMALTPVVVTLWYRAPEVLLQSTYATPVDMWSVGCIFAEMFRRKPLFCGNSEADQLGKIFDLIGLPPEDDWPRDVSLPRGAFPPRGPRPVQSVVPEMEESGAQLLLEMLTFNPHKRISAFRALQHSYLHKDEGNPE
T3 sequence (P24385 whole entry partner): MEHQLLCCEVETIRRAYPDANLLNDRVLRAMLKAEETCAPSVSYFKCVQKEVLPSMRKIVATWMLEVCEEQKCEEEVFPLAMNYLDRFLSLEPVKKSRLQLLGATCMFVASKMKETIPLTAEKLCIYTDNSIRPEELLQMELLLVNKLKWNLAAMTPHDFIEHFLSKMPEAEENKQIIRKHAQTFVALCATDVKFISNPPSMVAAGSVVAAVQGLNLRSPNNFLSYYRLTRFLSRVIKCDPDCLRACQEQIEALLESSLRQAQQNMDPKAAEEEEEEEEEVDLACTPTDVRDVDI
Description: as §1
(§2) This example provides in vitro kinase inhibition data for various compounds within the scope of the invention versus CDK 2, CDK 4, CDK, 5, CDK 7 and CDK 9. The protocol was similar to that shown in Example 14 Inhibition of the protein kinases was performed in triplicate using each compound at 100 nM.
(§3) This example provides in vitro kinase inhibition data for various compounds within the scope of the invention versus CDK 2, CDK 4, CDK, 5, CDK 7 and CDK 9.

CDK 5 = CDK 5 (Homo sapiens, UniProt Q00535); experiment: CDK5 in vitro kinase inhibition (protocol similar to Example 14); format: biochemical; settings: 100 nM; mean of three (standard deviation); read-out: CDK5 % remaining kinase activity after incubation with 100 nM of compound
CDK 5, sequence (Q00535 whole entry): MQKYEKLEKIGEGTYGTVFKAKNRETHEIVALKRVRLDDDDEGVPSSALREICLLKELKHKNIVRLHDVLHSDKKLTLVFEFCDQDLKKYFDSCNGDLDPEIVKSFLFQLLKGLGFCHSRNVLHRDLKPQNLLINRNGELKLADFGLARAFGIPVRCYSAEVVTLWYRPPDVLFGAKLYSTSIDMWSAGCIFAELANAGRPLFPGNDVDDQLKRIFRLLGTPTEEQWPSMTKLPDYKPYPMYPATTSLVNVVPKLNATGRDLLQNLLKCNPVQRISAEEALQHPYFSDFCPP
CDK 5, sequence (Q15078 whole entry partner): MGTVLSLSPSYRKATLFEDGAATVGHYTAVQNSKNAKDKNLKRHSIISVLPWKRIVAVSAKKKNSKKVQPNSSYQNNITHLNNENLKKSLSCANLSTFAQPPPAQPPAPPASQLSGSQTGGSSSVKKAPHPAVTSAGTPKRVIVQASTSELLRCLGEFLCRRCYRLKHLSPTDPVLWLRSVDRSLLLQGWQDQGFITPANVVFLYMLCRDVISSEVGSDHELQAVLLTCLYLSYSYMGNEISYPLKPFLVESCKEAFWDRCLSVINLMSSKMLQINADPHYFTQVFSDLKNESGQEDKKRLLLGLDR
Description: as §1, §2, §3

CDK4 [2] = target: T3, CDK4; experiment: 32P incorporation kinase assay, CDK4
MCF-7 cell line = experiment: cells; format: cell-based; settings: Homo sapiens, MCF-7, SRB assay, 24 hours; for LC50 (concentration causing 50% net cell kill) / IC (total growth inhibition): MCF7, 24 h; for IC (total growth inhibition): read-out: TGI; for IC50: MCF7, mean of three experiments, read-out: IC50
[3] = target: T4, CDK7 complex (CDK7, Cyclin H, MAT1) (Homo sapiens, UniProt P50613); experiment: CDK7/CycH/MAT1 trimeric complex kinase assay (PKLight luciferase); format: biochemical; settings: 100 nM; mean of three (standard deviation); read-out: CDK7 % remaining kinase activity after incubation with 100 nM of compound
T4 construct: purchased Proqinase GmbH, Germany
T4 sequence (P50613 whole entry): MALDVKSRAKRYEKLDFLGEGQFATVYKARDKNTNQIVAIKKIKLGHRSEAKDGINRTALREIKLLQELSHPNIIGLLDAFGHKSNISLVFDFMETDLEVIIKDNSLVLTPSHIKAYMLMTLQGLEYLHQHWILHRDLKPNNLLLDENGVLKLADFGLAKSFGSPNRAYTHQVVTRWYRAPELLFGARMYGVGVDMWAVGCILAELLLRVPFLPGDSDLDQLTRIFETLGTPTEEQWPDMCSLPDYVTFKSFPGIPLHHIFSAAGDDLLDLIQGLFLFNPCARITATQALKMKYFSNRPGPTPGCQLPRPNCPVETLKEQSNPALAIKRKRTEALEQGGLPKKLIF
T4 sequence (P51946 whole entry partner): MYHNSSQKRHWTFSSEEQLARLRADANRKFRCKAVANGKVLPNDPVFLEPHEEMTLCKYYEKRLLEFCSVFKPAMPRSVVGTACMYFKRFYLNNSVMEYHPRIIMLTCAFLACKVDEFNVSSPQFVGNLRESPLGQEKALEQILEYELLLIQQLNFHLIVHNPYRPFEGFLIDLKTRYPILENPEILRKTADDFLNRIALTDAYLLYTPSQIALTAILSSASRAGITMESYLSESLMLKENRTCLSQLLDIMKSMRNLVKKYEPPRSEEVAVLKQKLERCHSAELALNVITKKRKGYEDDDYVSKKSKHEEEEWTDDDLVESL
T4 sequence (P51948 whole entry partner): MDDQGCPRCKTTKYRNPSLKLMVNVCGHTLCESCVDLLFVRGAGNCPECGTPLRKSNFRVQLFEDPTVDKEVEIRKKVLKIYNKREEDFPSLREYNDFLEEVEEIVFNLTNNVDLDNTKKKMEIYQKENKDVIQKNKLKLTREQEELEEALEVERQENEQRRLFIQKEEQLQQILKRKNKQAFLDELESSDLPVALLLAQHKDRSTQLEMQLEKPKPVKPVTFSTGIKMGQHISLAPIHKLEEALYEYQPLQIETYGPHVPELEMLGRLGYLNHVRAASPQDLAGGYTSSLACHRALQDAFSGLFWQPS
How it was run: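 Compound was preincubated with the kinase for 30 min at 30 °C; the reaction then ran for 20 min at 30 °C with 2 μM ATP final. Remaining ATP was measured by PKLight luciferase luminescence at 560 nm. Values were corrected against the no-enzyme control and expressed relative to enzyme-only activity (100%), in triplicate.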

CAK (CDK7), sequence (P50613 whole entry): as the sequence (P50613 whole entry) above
CAK (CDK7), sequence (P51946 whole entry partner): as the sequence (P51946 whole entry partner) above
CAK (CDK7), sequence (P51948 whole entry partner): as the sequence (P51948 whole entry partner) above

Row | SMILES | IC50 (CAK (CDK7)) [µM] | remaining activity at 0.1 µM (CDK9/cyclin T complex) [%] | remaining activity at 0.1 µM (CDK2/cyclin A complex) [%] | IC50 (MCF-7) [µM] | CC50 (MCF-7) [µM] | Growth Inhibition MCF7 TGI (MCF-7) [µM] | remaining activity at 0.1 µM (CDK4 [1]) [%] | IC50 (CDK4 [1]) [µM] | remaining activity at 0.1 µM (CDK 5) [%] | IC50 (CDK4 [2]) [µM] | LC50 (concentration causing 50% net cell kill) (MCF-7 cell line) [µM] | IC (total growth inhibition) (MCF-7 cell line) [µM] | IC50 (MCF-7 cell line) [µM] | IC50 (CDK2/cyclin A complex) [µM] | IC50 (CDK9/cyclin T complex; Table 7, mean of three experiments, read-out: CDK9 kinase inhibition in vitro (IC50)) [µM] | remaining activity at 0.1 µM [3] [%]
1 | CC(C)c1cnn2c(NCc3ccccc3)cc(NC(CO)CCCCCCc3ccccn3)nc12 (stereo not drawn) [ICEC0159] | 0.042 | 100 | 84 | 87 | > 100 | >100 | 98 | > 1 | 89 | > 1 |  |  |  |  |  | 
2 | CC(C)c1cnn2c(NCc3ccccc3)cc(N[C@@H](CO)CCCCCCCc3ccc(F)nc3)nc12 [ICEC0141] | 0.08 | 95 | 84 | > 100 | 42 | >100 | 99 | > 1 | 95 | > 1 |  |  |  |  |  | 
3 | CC(C)c1cnn2c(NCc3ccccc3)cc(NCCCCCCC#N)nc12 [ICEC0179] | 0.02 | 97 | 52 | 35 | > 100 | >100 | 99 | > 1 | 94 | > 1 | 16 | 26 | 44 |  |  | 
4 | CC(C)c1cnn2c(NCc3ccccc3F)cc(N[C@@H](CO)CCCCCCc3ncccn3)nc12 [ICEC0161] | 0.055 | 100 | 71 | 23 | > 100 | 36 | 99 | > 1 | 92 | > 1 |  |  |  |  |  | 
5 | CC(C)c1cnn2c(NCc3ccccc3F)cc(NC(CO)CCCCCCCc3cncnc3)nc12 (stereo not drawn) [ICEC0168] | 0.12 | 91 | 83 | > 100 | 35 | >100 | 96 | > 1 | 97 | > 1 | 25 | 55 | > 100 | < 0.1 |  | 
6 | CC(C)c1cnn2c(NCc3ccccc3)cc(NCCOCCO)nc12 [ICEC0063] |  | 90 | 88 |  |  |  | 83 | > 1 | 90 |  | 40.5 | 76.5 | > 100 | > 1 | 0.1 | 25
7 | CC(C)c1cnn2c(NCc3ccccc3F)cc(NC(CO)CCCCCCc3ccccn3)nc12 (stereo not drawn) [ICEC0160] | 0.044 | 100 | 97 | 55 | > 100 | >100 | 99 |  | 92 | > 1 |  |  |  |  |  | 
8 | CC(C)c1cnn2c(NCc3ccccc3F)cc(NC(CO)CCCCCCCc3ccc(F)nc3)nc12 (stereo not drawn) [ICEC0138] | 0.046 | 100 | 100 | 69 | > 100 | >100 | 92 | > 1 | 98 | > 1 |  |  |  |  |  | 
